{
  "source": "paper PMC4853476",
  "about": "(Nature Communications, 2016)",
  "key": {"human PRC2 complex": {"target": "human PRC2 complex (Homo sapiens, UniProt O75530+Q15022+Q15910, DEL183-210)", "sequence (Q15910 421-746 limits assumed, stated change not applied)": "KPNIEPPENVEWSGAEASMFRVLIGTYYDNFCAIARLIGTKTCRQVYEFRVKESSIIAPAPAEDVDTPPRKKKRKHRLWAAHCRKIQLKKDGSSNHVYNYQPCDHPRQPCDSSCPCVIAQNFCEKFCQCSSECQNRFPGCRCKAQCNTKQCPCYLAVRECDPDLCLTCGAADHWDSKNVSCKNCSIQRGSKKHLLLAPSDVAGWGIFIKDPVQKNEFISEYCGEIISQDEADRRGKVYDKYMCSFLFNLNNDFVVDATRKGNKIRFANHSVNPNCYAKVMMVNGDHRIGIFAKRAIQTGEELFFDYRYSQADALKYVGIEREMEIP", "sequence (Q15910 with tags, fused parts or gaps DEL183-210 limits assumed)": "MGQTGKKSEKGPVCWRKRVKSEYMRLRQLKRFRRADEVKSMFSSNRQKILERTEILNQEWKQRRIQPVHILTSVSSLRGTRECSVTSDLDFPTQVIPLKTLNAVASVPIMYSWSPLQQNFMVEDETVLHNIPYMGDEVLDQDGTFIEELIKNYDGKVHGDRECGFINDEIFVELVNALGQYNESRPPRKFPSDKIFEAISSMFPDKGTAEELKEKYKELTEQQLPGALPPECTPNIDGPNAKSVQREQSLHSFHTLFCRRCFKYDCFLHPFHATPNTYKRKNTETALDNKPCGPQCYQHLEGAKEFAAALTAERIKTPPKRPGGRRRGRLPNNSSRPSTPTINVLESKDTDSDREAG", "sequence (O75530 77-441 partner limits assumed)": "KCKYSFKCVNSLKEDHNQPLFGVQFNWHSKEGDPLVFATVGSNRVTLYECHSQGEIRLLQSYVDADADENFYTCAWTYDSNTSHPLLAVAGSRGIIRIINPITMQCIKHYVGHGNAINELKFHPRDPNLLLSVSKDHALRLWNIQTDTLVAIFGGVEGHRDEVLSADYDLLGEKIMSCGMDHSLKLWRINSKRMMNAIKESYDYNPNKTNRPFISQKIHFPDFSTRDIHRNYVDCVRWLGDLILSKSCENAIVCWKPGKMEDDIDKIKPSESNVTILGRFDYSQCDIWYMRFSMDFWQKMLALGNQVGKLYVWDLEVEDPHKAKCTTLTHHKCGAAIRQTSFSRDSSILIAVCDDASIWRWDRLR", "sequence (Q15022 535-685 partner limits assumed)": "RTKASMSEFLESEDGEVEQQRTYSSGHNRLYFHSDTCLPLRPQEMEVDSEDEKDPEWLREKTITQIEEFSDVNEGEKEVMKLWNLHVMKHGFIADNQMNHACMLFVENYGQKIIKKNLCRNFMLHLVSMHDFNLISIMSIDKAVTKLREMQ", "protocol": "All anisotropy titrations were performed at 20 °C using a Jasco FP-8500 fluorimeter.\naffinity of PRC2 for H3 peptide.\n(a) Direct titration of PRC2 into FAM-K27M (0.4 μM) in the presence\nabsence of co-factor (white circles).\n(320 μM) with unlabelled peptides.\ntitration of PRC2 into FAM-\nThe titration in the absence of repressive"}, "PRC2 [1]": {"test_system": "PRC2", "conditions": "repressive peptides; cited from earlier work"}, "[2]": {"target": "human PRC2 core complex (EZH2^N 1-385 lacking 183-210, EZH2^C 421-746, EED 77-441, SUZ12 535-685) (human) (UniProt Q15910)", "sequence (Q15910 other isoform, or with tags, fused parts or gaps, chain 1 of 4)": "as the sequence (Q15910 with tags, fused parts or gaps DEL183-210 limits assumed) above", "sequence (Q15910 421-746, chain 2 of 4)": "as the sequence (Q15910 421-746 limits assumed, stated change not applied) above", "sequence (O75530 77-441, chain 3 of 4, further chain)": "as the sequence (O75530 77-441 partner limits assumed) above", "sequence (Q15022 535-685, chain 4 of 4, further chain)": "as the sequence (Q15022 535-685 partner limits assumed) above", "experiment": "fluorescence polarisation; anisotropy displacement titration: unlabelled peptide added to FAM-H3K27M (0.4 μM) and PRC2 ([…]) with SAM (320 μM); 20 °C; 25 mM Hepes pH 7.25, 25 mM NaCl, 1 mM TCEP, 0.01% Brij-35"}, "PRC2 [3]": {"test_system": "PRC2", "conditions": "kinetic studies, cited from earlier work", "description": "In their recent analysis, Brown et al.[19] quantified the inhibitory affect of a series of peptide constructs varying in the side chain (both natural and synthetic) at position 27."}},
  "note": "Where two headings read alike, the source gives them in different places.",
  "data": [
    {"compound": "Nc1ncnc2c1ncn2[C@@H]1O[C@H](CSCC[C@H](N)C(=O)O)[C@@H](O)[C@H]1O", "note": "[SAH]", "values": [
      {"measurement": "binding of cofactor product", "setting": "human PRC2 complex; relative to SAM", "value": "binds much weaker"}
    ]},
    {"compound": "C[S+](CC[C@H](N)C(=O)[O-])C[C@H]1O[C@@H](n2cnc3c(N)ncnc32)[C@H](O)[C@@H]1O", "note": "(stereo partly drawn) [SAM, S-adenosylmethionine]", "values": [
      {"measurement": "Kd", "setting": "human PRC2 complex", "value": "47 ± 9", "unit": "µM"}
    ]},
    {"compound": "Jarid2 K116me3: trimethylated K116 Jarid2 peptide (residues 111–121), binds EED and activates PRC2", "values": [
      {"measurement": "activation of PRC2", "setting": "PRC2 [1]", "value": "strongest activation of PRC2"}
    ]},
    {"compound": "unlabelled H3R26AK27M peptide", "values": [
      {"measurement": "Kd", "setting": "[2]", "value": 73, "unit": "µM"}
    ]},
    {"compound": "Norleucine", "values": [
      {"measurement": "relative inhibition of PRC2 by residue at position 27 (words)", "setting": "PRC2 [3]", "value": "even better inhibitor than methionine"},
      {"measurement": "relative inhibition of PRC2 by residue at position 27 (words)", "setting": "PRC2 [3]; listed as norleucine", "value": "strong inhibition"}
    ]}
  ]
}
